Measured values published in ChEMBL document CHEMBL1275274, “Direct renin inhibitors as a new therapy for hypertension” (J Med Chem, 2010).
Numbering of substitutions follows the chain as printed. ≈ marks a conversion by molar mass, not a printed value.

Assays:
[1] = Distribution coefficient, log D of the compound; type: physicochemical; conditions: octanol/water
[2] = target: T1, Renin (Homo sapiens, UniProt P00797); type: cell-free, Plasma
T1 sequence (P00797 whole entry): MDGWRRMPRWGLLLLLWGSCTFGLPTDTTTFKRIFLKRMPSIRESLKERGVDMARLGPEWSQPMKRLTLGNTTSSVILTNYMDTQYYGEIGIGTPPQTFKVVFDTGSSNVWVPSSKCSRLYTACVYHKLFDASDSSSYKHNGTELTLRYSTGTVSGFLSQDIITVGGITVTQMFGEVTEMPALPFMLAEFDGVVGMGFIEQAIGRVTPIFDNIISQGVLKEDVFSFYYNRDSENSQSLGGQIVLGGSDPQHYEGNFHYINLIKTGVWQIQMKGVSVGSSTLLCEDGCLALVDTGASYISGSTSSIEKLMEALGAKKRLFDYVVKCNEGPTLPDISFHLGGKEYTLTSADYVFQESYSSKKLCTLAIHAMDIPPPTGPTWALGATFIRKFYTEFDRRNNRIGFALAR

[3] = Oral bioavailability in Wistar rat; type: ADME, organism-based; conditions: in vivo
[4] = Elimination half life in Wistar rat; type: ADME, organism-based; conditions: in vivo, read-out: beta t1/2 (converted)
[5] = Oral bioavailability in rat; type: ADME, organism-based; conditions: in vivo
[6] = target: T1, Renin; assay: Inhibition of human recombinant renin in buffer
[7] = Tmax in Wistar rat; type: ADME, organism-based; conditions: in vivo
[8] = target: T1, Renin; assay: Binding affinity to human recombinant renin by isothermal titration calorimetry
[9] = target: T1, Renin; assay: Inhibition of renin in human plasma; type: cell-free
[10] = target: T2, Renin (Macaca mulatta, UniProt Q6DLW5); assay: Inhibition of renin in monkey plasma
T2 sequence (Q6DLW5 whole entry): T1 sequence (P00797 whole entry) with T68A, I214L, S235A, Q270P, R406H

[11] = target: T1, Renin; assay: Inhibition of renin in pH 7.4 buffer
[12] = Aqueous solubility of the compound at pH 6.6 buffer; type: physicochemical
[13] = Partition coefficient, log P of the compound at pH 7.4; type: physicochemical; conditions: octanol/water
[14] = (§1) Oral bioavailability in dog; type: ADME, organism-based, Canis lupus familiaris; conditions: in vivo
[15] = target: T3, Renin-1 (Mus musculus, UniProt P06281); assay: Inhibition of mouse renin
T3 sequence (P06281 whole entry): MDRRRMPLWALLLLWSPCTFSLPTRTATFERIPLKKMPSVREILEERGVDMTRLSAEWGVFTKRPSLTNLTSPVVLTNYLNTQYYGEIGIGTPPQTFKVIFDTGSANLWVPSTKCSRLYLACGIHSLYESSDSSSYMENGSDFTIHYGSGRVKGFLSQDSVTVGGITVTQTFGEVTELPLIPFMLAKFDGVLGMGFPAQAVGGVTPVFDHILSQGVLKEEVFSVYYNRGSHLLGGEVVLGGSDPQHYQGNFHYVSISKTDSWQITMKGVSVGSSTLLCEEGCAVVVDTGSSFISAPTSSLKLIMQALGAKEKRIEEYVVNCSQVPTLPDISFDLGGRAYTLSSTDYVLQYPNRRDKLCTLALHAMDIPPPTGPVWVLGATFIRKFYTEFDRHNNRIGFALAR

[16] = test system: Callithrix jacchus; assay: Oral bioavailability in marmoset; type: ADME, organism-based; conditions: in vivo
[17] = test system: Canis familiaris; assay: as §1; type: ADME, organism-based, Canis lupus familiaris; conditions: in vivo
[18] = Competitive inhibition of pig pepsin at pH 5; parameters: species or system Sus scrofa
[19] = target: Voltage-gated inwardly rectifying potassium channel KCNH2 (Homo sapiens, UniProt Q12809); assay: Inhibition of human ERG
[20] = target: T4, Cathepsin E (Homo sapiens, UniProt P14091); assay: Inhibition of cathepsin E
T4 sequence (P14091 whole entry): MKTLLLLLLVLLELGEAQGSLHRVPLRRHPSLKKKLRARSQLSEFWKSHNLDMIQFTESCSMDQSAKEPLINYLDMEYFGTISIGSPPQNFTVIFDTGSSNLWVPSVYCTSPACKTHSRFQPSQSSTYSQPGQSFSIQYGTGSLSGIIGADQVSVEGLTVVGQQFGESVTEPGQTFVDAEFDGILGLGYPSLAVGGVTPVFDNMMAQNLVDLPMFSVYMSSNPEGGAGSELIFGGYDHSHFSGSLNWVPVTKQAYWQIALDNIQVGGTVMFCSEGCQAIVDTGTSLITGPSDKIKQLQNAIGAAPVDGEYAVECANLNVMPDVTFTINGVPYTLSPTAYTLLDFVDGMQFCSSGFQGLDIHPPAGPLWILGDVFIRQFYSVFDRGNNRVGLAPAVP

[21] = Elimination half life in rhesus monkey; type: ADME, organism-based, Macaca mulatta; conditions: in vivo, read-out: beta t1/2 (converted)
[22] = target: Cathepsin D (Homo sapiens, UniProt P07339); assay: Inhibition of cathepsin D
[23] = Oral bioavailability in rhesus monkey; type: ADME, organism-based, Macaca mulatta; conditions: in vivo
[24] = Oral bioavailability in monkey; type: ADME, organism-based, Macaca mulatta; conditions: rhesus monkey, in vivo
[25] = Elimination half life in dog; type: ADME, organism-based, Canis lupus familiaris; conditions: in vivo, read-out: beta t1/2 (converted)
[26] = target: Cytochrome P450 3A4 (Homo sapiens, UniProt P08684); assay: Inhibition of CYP3A4; type: ADME
[27] = Inhibition of Cytochrome P450; type: ADME

Chain of Cathepsin D (P07339 65-162 limits assumed): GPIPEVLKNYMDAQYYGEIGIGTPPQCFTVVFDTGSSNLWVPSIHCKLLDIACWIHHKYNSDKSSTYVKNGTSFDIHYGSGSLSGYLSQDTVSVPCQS
Chain of Cathepsin D (P07339 169-412 limits assumed): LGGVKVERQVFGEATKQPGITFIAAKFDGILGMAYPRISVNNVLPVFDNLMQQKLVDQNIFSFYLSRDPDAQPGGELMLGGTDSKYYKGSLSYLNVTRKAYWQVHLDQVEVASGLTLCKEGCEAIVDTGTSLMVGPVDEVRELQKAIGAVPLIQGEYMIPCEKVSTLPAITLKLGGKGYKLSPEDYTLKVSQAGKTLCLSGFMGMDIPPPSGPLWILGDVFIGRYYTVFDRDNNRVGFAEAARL
Chain of Voltage-gated inwardly rectifying potassium channel KCNH2 (Q12809 whole entry): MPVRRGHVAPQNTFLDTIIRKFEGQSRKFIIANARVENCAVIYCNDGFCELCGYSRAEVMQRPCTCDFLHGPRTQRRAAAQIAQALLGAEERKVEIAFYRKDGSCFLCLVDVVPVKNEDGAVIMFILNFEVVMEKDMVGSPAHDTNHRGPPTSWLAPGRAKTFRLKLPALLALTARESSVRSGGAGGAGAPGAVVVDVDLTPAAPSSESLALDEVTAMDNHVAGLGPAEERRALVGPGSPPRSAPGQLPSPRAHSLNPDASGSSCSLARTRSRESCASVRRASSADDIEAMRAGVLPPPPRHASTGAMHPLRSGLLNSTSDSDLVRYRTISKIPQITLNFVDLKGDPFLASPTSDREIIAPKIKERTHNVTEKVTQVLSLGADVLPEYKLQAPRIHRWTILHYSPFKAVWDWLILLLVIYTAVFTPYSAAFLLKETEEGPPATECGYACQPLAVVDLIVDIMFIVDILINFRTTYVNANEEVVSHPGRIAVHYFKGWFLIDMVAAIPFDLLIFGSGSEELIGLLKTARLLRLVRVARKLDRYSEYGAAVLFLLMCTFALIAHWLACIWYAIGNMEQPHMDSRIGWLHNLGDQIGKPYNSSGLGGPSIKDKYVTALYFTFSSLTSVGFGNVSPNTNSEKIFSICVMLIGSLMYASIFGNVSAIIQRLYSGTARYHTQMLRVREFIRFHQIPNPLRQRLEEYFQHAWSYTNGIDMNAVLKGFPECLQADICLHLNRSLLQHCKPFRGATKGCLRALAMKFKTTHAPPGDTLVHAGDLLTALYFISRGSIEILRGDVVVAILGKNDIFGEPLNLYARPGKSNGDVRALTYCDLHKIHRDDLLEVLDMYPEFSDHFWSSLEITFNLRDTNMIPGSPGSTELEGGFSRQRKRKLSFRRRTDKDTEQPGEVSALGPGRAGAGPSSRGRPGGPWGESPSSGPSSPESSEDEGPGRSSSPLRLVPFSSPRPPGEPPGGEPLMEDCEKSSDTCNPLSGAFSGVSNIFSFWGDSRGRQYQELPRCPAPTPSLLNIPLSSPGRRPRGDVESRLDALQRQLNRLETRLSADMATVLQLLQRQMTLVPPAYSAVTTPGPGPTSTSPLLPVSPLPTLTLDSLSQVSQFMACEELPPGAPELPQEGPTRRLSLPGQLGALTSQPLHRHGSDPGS
Chain of Cytochrome P450 3A4 (P08684 whole entry): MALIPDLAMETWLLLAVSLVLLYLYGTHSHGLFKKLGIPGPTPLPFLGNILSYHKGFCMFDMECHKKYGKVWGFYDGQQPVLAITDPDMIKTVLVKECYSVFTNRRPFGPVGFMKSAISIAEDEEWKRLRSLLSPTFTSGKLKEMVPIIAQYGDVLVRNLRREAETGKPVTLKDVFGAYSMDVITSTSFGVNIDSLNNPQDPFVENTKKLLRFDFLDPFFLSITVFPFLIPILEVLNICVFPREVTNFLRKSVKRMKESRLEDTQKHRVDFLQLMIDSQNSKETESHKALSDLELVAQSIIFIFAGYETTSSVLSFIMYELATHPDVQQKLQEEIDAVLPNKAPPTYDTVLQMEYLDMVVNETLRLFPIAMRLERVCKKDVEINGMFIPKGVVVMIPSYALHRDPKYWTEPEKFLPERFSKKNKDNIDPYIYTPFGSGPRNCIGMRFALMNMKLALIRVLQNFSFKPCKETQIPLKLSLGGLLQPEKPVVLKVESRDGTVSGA

Compound `Cc1cc(Cl)c(OCCOc2ccc(C3=C(C(=O)N(Cc4cccc(C)c4C)C4CC4)[C@H]4CNC[C@@H](C3)N4)cc2)c(Cl)c1` has a logD [1] greater than 4.9, an IC50 [2] of 19 nM and a bioavailability [3] of 24%. The half-life [4] was 6.6 h, the bioavailability [5] was 24% and the IC50 [6] was 0.2 nM. It also gave a Tmax [7] of 10 h.

In the case of `CCCCNC(=O)[C@H](C)C[C@H](O)[C@@H](N)CC(C)(C)CC(=O)N1C[C@H](C(=O)OC)Cc2ccccc21`, the IC50 [6] is reported as 0.8 nM.

For `CCc1nc(N)nc(NCCNS(=O)(=O)c2ccc3ccccc3c2)c1-c1ccc2c(c1)N(CCCOC)C(=O)C(C)(C)O2`, the Kd [8] was 79 nM.

Work on `COC[C@@H]1CNC[C@H](OCc2ccc3ccccc3c2)[C@H]1c1ccc(COC(=O)c2ccccc2Cl)cc1` yielded an IC50 [6] of 2 nM.

Work on `Brc1ccc([C@H]2CCNC[C@@H]2OCc2ccc3ccccc3c2)cc1` yielded an IC50 [6] of 5000 nM.

`CCCCNC(=O)[C@@H](NC[C@@H]1CCCCOc2ccccc2C[C@H](NC(=O)OC(C)(C)C)C(=O)N[C@@H](Cc2cnc[nH]2)C(=O)N1)C(C)C` gave an IC50 [9] of 20 nM.

`C=CC[C@H](NC(=O)CNS(=O)(=O)N1CCOCC1)C(=O)N[C@@H](CC1CC=C(c2cccc3ccccc23)CC1)[C@@H](O)[C@@H](O)CC(C)C` (stereo not given in full) gave an IC50 [10] of 11 nM.

For `COCCCCOc1ccccc1C(=O)NC[C@@H](C[C@H](N)[C@@H](O)C[C@H](C(=O)NCCC1CCN(C(C)=O)CC1)C(C)C)C(C)C`, the IC50 [2] was 0.3 nM.

Compound `CCC(C)C[C@H](NC(=O)[C@@H](NC[C@@H](O)[C@@H](N)CCCc1ccc(-c2ccccc2)cc1)C(C)C)C(=O)NCCCc1ccccc1` (stereo not given in full) has an IC50 [11] of 4 nM.

For `COc1ccccc1COCCCOc1ccc(C2=C(C(=O)N(Cc3ccnc(OC)c3C)C3CC3)[C@H]3CNC[C@@H](C2)N3)cc1`, the IC50 [2] was 18 nM and the IC50 [6] was 1.4 nM.

Work on `COc1ccccc1COCCCOc1ccc([C@H]2CCNC[C@@H]2OCc2ccc3c(c2)N(CCNC(C)=O)CCC3)cc1` yielded a logD [1] of 3, an IC50 [2] of 0.6 nM and a solubility [12] of 124 µg/mL (≈ 206 µM).

Work on `COc1ccccc1COCCCOc1ccc([C@@H]2[C@@H](OCc3cc(OC)c4ccccc4c3)CNC[C@H]2OC[C@H](O)CO)cc1` yielded an IC50 [2] of 2.2 nM, a solubility [12] of 24 µg/mL (≈ 38 µM) and a logD [13] of 3.7. It also gave a bioavailability [14] of 27% and an IC50 [6] of 0.06 nM.

`COc1ccccc1COCCCOc1ccc(N2CCNC[C@@H]2COC2=CC3C(C=C2)CCCN3CCNC(C)=O)cc1` (stereo not given in full) showed an IC50 [6] of 0.5 nM.

With `COc1ccccc1COCCCOc1ccc(N2C(=O)CNC[C@@H]2COC2=CC3C(C=C2)CCCN3CCNC(C)=O)cc1` (stereo not given in full) the IC50 [6] was 0.29 nM.

Work on `COCCCN1C(=O)COC2C=CC(OC[C@H]3CNCC(=O)N3c3ccc(OCCCOCc4ccccc4OC)cc3)=CC21` (stereo not given in full) yielded an IC50 [6] of 0.68 nM.

`COCCCN1C(=O)COC2C=CC(SC[C@H]3CNCC(=O)N3c3ccc(OCCCOCc4ccccc4OC)cc3)=CC21` (stereo not given in full) showed an IC50 [6] of 0.18 nM.

With `CCc1nc(N)nc(NCCc2ccccc2NC(=O)c2ccc(N)c(OC)c2)c1-c1ccc2c(c1)N(CCCOC)C(=O)C(C)(C)O2` the Kd [8] was 270 nM.

Work on `COc1ccccc1COCCCOc1ccc(C2=C(C(=O)N(Cc3cccc(OC)c3C)C3CC3)[C@H]3CNC[C@@H](C2)N3)cc1` yielded an IC50 [6] of 0.62 nM.

`CCCCNC(=O)[C@H](C)C[C@H](O)[C@@H](N)C[C@@H](CNC(=O)c1cn(CC)c2ccccc12)C(C)C` gave an IC50 [2] of 4 nM.

With `CC(C)C[C@H](O)[C@H](O)[C@H](CC1CCCCC1)NC(=O)[C@H](Cc1cnc[nH]1)NC(=O)C[C@H](C)c1ccccc1` the IC50 [6] was 11 nM.

With `COc1cccc(OCCCc2cccnc2)c1C(=O)N[C@@H](CC1CCCCC1)[C@@H](O)[C@@H](O)CC(C)C` the IC50 [6] was 39 nM.

`CCCCNC(=O)[C@H](C)C[C@H](O)[C@@H](N)C[C@H](C)COC(=O)c1cn(Cc2ccccc2)c2ccccc12` gave an IC50 [6] of 1 nM.

For `CNC[C@H](CC1CCCCC1)NC(=O)N1CCC[C@@H]([C@@H](OCCCOC)c2ccccc2)C1`, the IC50 [2] was 447 nM and the bioavailability [5] was 36%.

`CC[C@H]1CC[C@](O)(CCc2ccccc2)C[C@@H]1C(=O)N[C@@H](CC1CCCCC1)[C@@H](O)[C@@H](O)CC(C)C` gave an IC50 [6] of 11 nM.

Work on `COCCCOc1cc(C[C@@H](C[C@H](N)[C@@H](O)C[C@H](C(=O)NCC(C)(C)C(N)=O)C(C)C)C(C)C)ccc1OC` yielded an IC50 [15] of 4.5 nM, an F [16] of 16% and an F [17] of 32%.

Work on `COc1ccc(CO[C@H]2CNCC[C@@H]2c2ccc(Cl)cc2)cc1` yielded an IC50 [18] of 1500 nM and an IC50 [6] of 25000 nM.

Compound `COc1ccccc1COCCCOc1ccc([C@H]2CCNC[C@@H]2OCc2ccc3c(c2)NCCC3)cc1` has a logD [1] of 5.6, an IC50 [2] of 31 nM and a solubility [12] of 3 µg/mL (≈ 5.81 µM). For the same compound, the IC50 [6] was 0.21 nM.

`COC[C@@H](O)CO[C@@H]1CNC[C@H](OCc2cc(OC)c3ccccc3c2)[C@H]1c1ccc(OCCCOCc2ccccc2OC)cc1` showed an IC50 [2] of 8.9 nM, a solubility [12] of 3 µg/mL (≈ 4.65 µM) and a logD [13] of 5.7. For the same compound, the bioavailability [14] was 6%.

With `CCc1nc(N)nc(N)c1-c1ccc2c(c1)N(CCNC(C)=O)C(=O)[C@](C)(c1ccccc1)O2` the bioavailability [5] was 10%.

Compound `CNC[C@H](CC1CCCCC1)NC(=O)N1CCC[C@@H]([C@@](O)(CCCCOC)c2cccc(Cl)c2)C1` has a solubility [12] greater than 1000 µg/mL, a bioavailability [5] of 13% and an IC50 [19] greater than 30000 nM.

With `O=C(C1=C(c2ccc(CCCOc3c(F)ccc(F)c3Cl)cc2)C[C@@H]2CNC[C@H]1N2)N(Cc1cccc(Cl)c1Cl)C1CC1` the logD [1] was greater than 4.6, the IC50 [20] was 8100 nM and the half-life [21] was 10 h. For the same compound, the bioavailability [14] was 36%, the IC50 [22] was 2700 nM and the bioavailability [23] was 9%. For the same compound, the bioavailability [24] was 9%, the half-life [25] was 10 h and the IC50 [26] was greater than 10000 nM.

In the case of `COc1ccccc1COCCCOc1ccc(N2C(=O)CNC[C@@H]2COCc2cccnc2)cc1`, the IC50 [6] is reported as 12 nM.

With `CNC[C@H](CC1CCCCC1)NC(=O)N1CCC[C@@H]([C@@H](OCCNC(=O)OC)c2cccc(Cl)c2)C1` the IC50 [2] was 0.8 nM and the bioavailability [5] was 9%.

`CCc1nc(N)nc(N)c1-c1ccc2c(c1)N(CCCO)C(=O)C(C)(c1ccccc1)O2` (racemic) gave an IC50 [27] greater than 30000 nM and a bioavailability [5] of 44%.

`CN[C@H](CNC(=O)N1CCC[C@@H]([C@@H](OCCNC(=O)OC)c2cccc(Cl)c2)C1)C[C@H]1CCCOC1` [VTP-27999] showed an IC50 [2] of less than 10 nM.
